# Read-outs that look alike come from different tables or passages of the source. Numbered stars: 1 amine (or outer) side, 2 acyl side, 3 side chain; on linkers, the order of the positions; unused ones are H or OH. Bridge positions count the residues as written; N and C are the ends. Square brackets hold non-standard residues; d marks the D form. Peptide text beside a SMILES is read from it. Trp(βS-Me,7-OMe) = COc1cccc2c([C@H](C)[C@H](N)C(=O)O)c[nH]c12; Trp(1-CH2COOH) = N[C@@H](Cc1cn(CC(=O)O)c2ccccc12)C(=O)O; X32 = NC(=O)c1ccc([C@@H](O)C(N[*:1])C(=O)[*:2])cc1; Trp(7-Br) = N[C@@H](Cc1c[nH]c2c(Br)cccc12)C(=O)O; Trp(7-CN) = N#Cc1cccc2c(C[C@H](N)C(=O)O)c[nH]c12; Trp(7-Cl) = N[C@@H](Cc1c[nH]c2c(Cl)cccc12)C(=O)O; Ala(pyrimidin-5-yl) = N[C@@H](Cc1cncnc1)C(=O)O; Phe(4-CONH2) = NC(=O)c1ccc(C[C@H](N)C(=O)O)cc1; Phe(4-COOH) = N[C@@H](Cc1ccc(C(=O)O)cc1)C(=O)O; Trp(7-aza) = N[C@@H](Cc1c[nH]c2ncccc12)C(=O)O; Phe(4-CH2NH2) = NCc1ccc(C[C@H](N)C(=O)O)cc1; X18 = O=C([C@@H]1C=C[C@H](N[*:1])C1)[*:2]; dPro(4S-NH2) = N[C@@H]1CN[C@@H](C(=O)O)C1; Pip(5R-OH) = O=C(O)[C@@H]1CC[C@@H](O)CN1; X1 = O=C([C@@H]1CC[C@H](N[*:1])C1)[*:2]; NHCH2CH2SCH2CO = O=C(CSCCN[*:1])[*:2]; hPhe = N[C@@H](CCc1ccccc1)C(=O)O; 4Pal = N[C@@H](Cc1ccncc1)C(=O)O; NMeE = CN[C@@H](CCC(=O)O)C(=O)O; αMeS = C[C@](N)(CO)C(=O)O; NMeA = CN[C@@H](C)C(=O)O; Nle = CCCC[C@H](N)C(=O)O; Sar = CNCC(=O)O
# What was measured:
# [1] = molecular target: T1, TNFα-induced NF-κB signal transduction pathway (TNFR1 signaling) in THP-1 cells (Homo sapiens, UniProt P19438); experiment: THP-1 Lucia NF-κB reporter cell assay, inhibition of TNFα-induced NF-κB signaling; format: cell-based; details: THP-1 NF-κB Lucia reporter cells, 10 ng/mL TNFα, 16-18 h, secreted luciferase; read-out: THP-1 IC50
# T1 sequence (P19438 30-455): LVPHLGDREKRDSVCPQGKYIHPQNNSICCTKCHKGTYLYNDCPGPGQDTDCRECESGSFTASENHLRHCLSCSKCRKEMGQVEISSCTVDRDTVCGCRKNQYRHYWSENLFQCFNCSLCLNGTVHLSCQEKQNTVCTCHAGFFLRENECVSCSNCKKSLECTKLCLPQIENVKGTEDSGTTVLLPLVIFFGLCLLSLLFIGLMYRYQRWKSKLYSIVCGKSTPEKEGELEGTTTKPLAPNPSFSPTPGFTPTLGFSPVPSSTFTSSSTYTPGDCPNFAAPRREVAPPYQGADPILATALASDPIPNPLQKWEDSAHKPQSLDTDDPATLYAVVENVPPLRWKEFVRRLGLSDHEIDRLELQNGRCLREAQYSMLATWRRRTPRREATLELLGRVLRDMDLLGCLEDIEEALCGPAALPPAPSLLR
# Method in brief: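 IC50 from a 4-parameter logistic fit of secreted luciferase luminescence (QUANTI-Luc), normalised to min/max controls. Reporter THP-1 cells were exposed to peptides for 1 h at 37 °C before 10 ng/mL TNFα (final) was added overnight (16–18 h).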
# [2] = molecular target: T2, human TNFR1 extracellular domain (ECD) protein (Homo sapiens, UniProt P19438); experiment: SPR binding affinity to captured human TNFR1 ECD
# T2 construct: HRV 3C protease cleavage site (C); 6His (C, cleaved yes); made in house; host or cells: Sf21 insect cells (baculovirus), secreted
# T2 sequence (P19438 30-211): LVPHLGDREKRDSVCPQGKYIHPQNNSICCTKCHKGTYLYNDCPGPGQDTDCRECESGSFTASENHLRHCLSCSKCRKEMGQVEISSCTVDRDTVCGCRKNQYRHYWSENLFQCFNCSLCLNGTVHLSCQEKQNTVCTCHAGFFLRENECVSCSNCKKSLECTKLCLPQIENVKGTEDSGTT
# Method in brief: (§1)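 Peptide binding kinetics read by SPR in HEPES pH 7.4 running buffer with 2% DMSO, with TNFR2 ECD tested in parallel for off-target binding. Receptor ECDs, insect-cell expressed and biotinylated at C-terminal avi-tag, were captured via streptavidin. KA derived from association and dissociation rate constants.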
# human TNFR2 ECD protein = molecular target: T3, human TNFR2 ECD protein (Homo sapiens, UniProt P20333); experiment: SPR off-target binding (selectivity) to human TNFR2 ECD
# T3 construct: HRV 3C protease cleavage site (C); 6His (C, cleaved yes); made in house; host or cells: Sf21 insect cells (baculovirus), secreted
# T3 sequence (P20333 23-257): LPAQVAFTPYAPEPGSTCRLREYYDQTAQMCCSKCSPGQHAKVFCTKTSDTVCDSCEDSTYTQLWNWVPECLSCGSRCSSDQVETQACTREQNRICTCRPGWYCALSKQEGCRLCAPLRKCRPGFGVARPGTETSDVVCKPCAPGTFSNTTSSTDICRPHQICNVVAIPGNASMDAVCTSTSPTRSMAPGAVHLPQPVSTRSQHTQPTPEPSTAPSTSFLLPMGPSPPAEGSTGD
# Method in brief: as §1
Compound,IC50 [1],Kd [2],Kd (human TNFR2 ECD protein),"Kd ([2]; biotinylated human TNFR1 ECD on streptavidin chip, from kon and koff, read-out: SPR hTNFR1 KD)","Kd (human TNFR2 ECD protein; biotinylated human TNFR2 ECD on streptavidin chip, read-out: SPR hTNFR2 KD)"
"CCCC[C@@H]1NC(=O)[C@@H]2CC[C@@H](C2)NC(=O)[C@H]([C@@H](C)c2c[nH]c3c(OC)cccc23)NC(=O)CN(C)C(=O)[C@H](Cc2ccc(O)cc2)NC(=O)[C@H](Cc2ccc(C(N)=O)cc2)NC(=O)[C@](C)(CO)NC(=O)[C@H](Cc2c[nH]c3c(Cl)cccc23)NC(=O)[C@H](Cc2cncnc2)NC(=O)[C@H](CC(N)=O)NC(=O)[C@H](CCC(=O)O)N(C)C(=O)[C@H](Cc2c[nH]c3ccccc23)NC(=O)[C@@H]2CC[C@@H](O)CN2C(=O)[C@H](Cc2ccncc2)NC1=O [SEQ ID NO. 102] (cyclo([4Pal][Pip(5R-OH)]W[NMeE]N[Ala(pyrimidin-5-yl)][Trp(7-Cl)][αMeS][Phe(4-CONH2)]Y[Sar][Trp(βS-Me,7-OMe)][X1][Nle]))",0.5 nM,0.2 nM,> 1000 nM,–,–
"CCCC[C@@H]1NC(=O)CSCCNC(=O)[C@H]([C@@H](C)c2c[nH]c3c(OC)cccc23)NC(=O)CN(C)C(=O)[C@H](Cc2ccc(O)cc2)NC(=O)[C@H](Cc2ccc(C(=O)O)cc2)NC(=O)[C@](C)(CO)NC(=O)[C@H](Cc2c[nH]c3c(Cl)cccc23)NC(=O)[C@H](Cc2ccncc2)NC(=O)[C@H](CC(N)=O)NC(=O)[C@H](CCC(=O)O)N(C)C(=O)[C@H](Cc2c[nH]c3ncccc23)NC(=O)[C@H](CO)NC(=O)[C@H](Cc2ccc(CN)cc2)NC1=O [SEQ ID NO. 258] (cyclo([4Pal][Trp(7-Cl)][αMeS][Phe(4-COOH)]Y[Sar][Trp(βS-Me,7-OMe)][NHCH2CH2SCH2CO][Nle][Phe(4-CH2NH2)]S[Trp(7-aza)][NMeE]N))",11.5 nM,0.2 nM,> 1000 nM,–,–
C[C@H]1C(=O)N[C@@H](CC(N)=O)C(=O)N[C@@H](Cc2ccncc2)C(=O)N[C@@H](Cc2c[nH]c3ccccc23)C(=O)N[C@@](C)(CO)C(=O)N[C@@H](Cc2ccc(C(=O)O)cc2)C(=O)N[C@@H](Cc2ccc(O)cc2)C(=O)N(C)CC(=O)N[C@@H](Cc2c[nH]c3ccccc23)C(=O)N[C@H]2C=C[C@H](C2)C(=O)N[C@@H](CCc2ccccc2)C(=O)N[C@@H](Cc2ccncc2)C(=O)N[C@@H](CO)C(=O)N[C@@H](Cc2c[nH]c3ccccc23)C(=O)N1C [SEQ ID NO. 73] (cyclo([4Pal]SW[NMeA]N[4Pal]W[αMeS][Phe(4-COOH)]Y[Sar]W[X18][hPhe])),5.8 nM,0.9 nM,> 1000 nM,–,–
"CCCC[C@@H]1NC(=O)CSC[C@@H](C(N)=O)NC(=O)[C@H]([C@@H](C)c2c[nH]c3c(OC)cccc23)NC(=O)CN(C)C(=O)[C@H](Cc2ccc(O)cc2)NC(=O)[C@H](Cc2ccc(C(N)=O)cc2)NC(=O)[C@](C)(CO)NC(=O)[C@H](Cc2c[nH]c3c(Br)cccc23)NC(=O)[C@H](Cc2ccncc2)NC(=O)[C@H](CC(N)=O)NC(=O)[C@H](CCC(=O)O)N(C)C(=O)[C@H](Cc2c[nH]c3ccccc23)NC(=O)[C@@H]2CC[C@@H](O)CN2C(=O)[C@H](Cc2ccncc2)NC1=O [SEQ ID NO. 39] ({CH2CO}-[Nle][4Pal][Pip(5R-OH)]W[NMeE]N[4Pal][Trp(7-Br)][αMeS][Phe(4-CONH2)]Y[Sar][Trp(βS-Me,7-OMe)]C-NH2; thioether N-14)",0.9 nM,0.05 nM,> 1000 nM,–,–
"CCCC[C@@H]1NC(=O)[C@@H]2CC[C@@H](C2)NC(=O)[C@H]([C@@H](C)c2c[nH]c3c(OC)cccc23)NC(=O)CN(C)C(=O)C([C@H](O)c2ccc(C(N)=O)cc2)NC(=O)[C@H](Cc2ccc(C(N)=O)cc2)NC(=O)[C@](C)(CO)NC(=O)[C@H](Cc2c[nH]c3c(C#N)cccc23)NC(=O)[C@H](Cc2ccc(C(=O)O)cc2)NC(=O)[C@H](CC(N)=O)NC(=O)[C@H]2C[C@H](N)CN2C(=O)[C@H](Cc2cn(CC(=O)O)c3ccccc23)NC(=O)[C@@H]2CC[C@@H](O)CN2C(=O)[C@H](Cc2ccncc2)NC1=O (stereo partly drawn) [SEQ ID NO. 87] (cyclo([4Pal][Pip(5R-OH)][Trp(1-CH2COOH)][dPro(4S-NH2)]N[Phe(4-COOH)][Trp(7-CN)][αMeS][Phe(4-CONH2)][X32][Sar][Trp(βS-Me,7-OMe)][X1][Nle]))",0.7 nM,–,–,0.02 nM,> 1000 nM

# From patent US20240287138A1, “CYCLIC PEPTIDES FOR INHIBITING TNF RECEPTOR 1 ACTIVITY” (Merck Sharp & Dohme LLC, priority 2023, published 2024)
